Experiments:
[1] = system: mitochondrial respiration of A2780 cells; assay: Oxygen consumption rate (Clark-type O2 electrode); type: cell-based, human; details: A2780, 24 h at 72 h IC50 dose, compared to controls
Procedure: (§1) The analysis of the oxygen consumption rate (OCR) was performed using a Clark-type O2 electrode inserted in a thermostated airtight chamber (Oxygraph Plus System, Hansatech Instruments, King’s Lynn, Norfolk, UK). Briefly, control and treated cells (12 and 24 h) were trypsinized, washed with PBS, and suspended in culture medium to measure the steady state OCR for 10 min. The OCR values, expressed as nmol of consumed O2/mL/min, were normalized to the cellular protein content. To evaluate the response of complex I, complex II/III, and ATP-synthase-driven OCRs in the presence or absence of gold-treatment, we used the protocol described by Baracca et al.. Cells were trypsinized, washed, and resuspended in buffer containing sucrose, TRIS-HCl, MgSO4, EDTA, and KH2PO4. Cell suspension was treated with digitonin to allow cell membrane permeabilization. To stimulate complex I, 250 mM glutamate/malate was added, whereas to stimulate complex II, 250 mM succinate was added (state 2 respiration). Then, to induce ATP-synthase-driven mitochondrial respiration, 10 mM ADP was added (state 3 respiration). To estimate the mitochondrial respiratory capacity, defined as the respiratory control ratio (RCR), state 3/state 2 ratios were calculated for control and treated cells.

[2] = system: HEK293 (human embryonic kidney) cells; assay: MTT antiproliferative assay on HEK cells; type: cell-based; details: for IC50: 72 h of treatment, MTT assay, mean ± SD of three experiments, read-out: Half-maximal inhibitory concentration (IC50), HEK293; for IC50 for HEK higher than for A2780 (fold): ratio of 72 h IC50 HEK / A2780
Procedure: The inhibition of cell proliferation by Au2phen, Auoxo6, and AuL12 on A2780 cell line was evaluated through MTT (3-(4,5-dimethylthiazol-2-yl)-2,5-diphenyltetrazolium bromide) test. Viable cells can convert MTT into formazan, which is coloured and detectable at 595 nm. Exponentially growing cells were seeded in 96 well-microplates at a density of 8 × 10^3 for 24 h and then gold compounds were added in fresh RPMI medium at concentrations ranging from 0.003 to 100 µM and incubated for 72 h. On the day of the test, cells were treated with 0.5 mg/mL MTT for 1 h at 37 °C. Following precipitation, blue formazan was dissolved in DMSO, and the optical density was read in a microplate reader interfaced with Microplate Manager/PV version 4.0 software (BioRad Laboratories, Hercules, USA). From the absorbance measurements, the half-maximal inhibitory concentration (IC50) value of each compound on A2780 cells was calculated using GraphPad Prism software version 6.0 (Graphpad Holdings, LLC, USA). The same protocol was applied on non-tumor cell lines, i.e., HEK and PNT1 cells.

[3] = system: thioredoxin reductase (TrxR); details: for effect on TrxR enzyme activity: A2780, 12 h treatment at 72 h IC50 dose; for inhibition of TrxR enzyme activity: A2780, 24 h treatment at 72 h IC50 dose, vs controls
Procedure: The total thioredoxin reductase (TrxR) activity was measured using a commercial colorimetric assay kit (#CS0170, Sigma Aldrich, St. Louis, MO, USA) based on the reduction of 5,5′-dithiobis (2-nitrobenzoic) acid (DTNB) with NADPH to 5-thio-2 nitrobenzoic acid (TNB) at 412 nm. This kit also contains an inhibitor solution of mammalian thioredoxin reductase. Since several enzymes present in the biological sample can reduce DTNB, the specific inhibitor is used to determine the reduction of DTNB due only to TrxR activity. […] Cells were lysed with RIPA buffer (50 mM Tris-HCl pH 7.0, 1% (v/v) NP-40, 150 mM NaCl, 2 mM ethylene glycol bis(2-aminoethyl ether)tetra-acetic acid, 100 mM NaF) supplemented with a cocktail of protease inhibitors. The protein concentrations in the cell lysates were determined by Bradford protein assay kit (Bio-Rad Laboratories, Hercules, USA) according to the manufacturer’s instructions and then 30 µg samples of proteins were used for the assay. Results were normalized to the cellular protein content.

[4] = system: complex II-driven mitochondrial respiration; assay: Respiratory control ratio, complex II-driven respiration in permeabilized cells; type: cell-based, human; details: permeabilized A2780, 24 h treatment; control about 3.0
Procedure: as §1

A2780 cells = assay: Annexin V/propidium iodide flow cytometry (apoptosis); type: cell-based, human; details: A2780, 72 h exposure at IC50 dose
Procedure: The evaluation of cell death was carried out using the TACS annexin V/propidium iodide staining kit (Trevigen, Gaithersburg, MD, USA) according to the manufacturer’s instructions. […] After 72 h, controls and treated cells were trypsinized, washed with PBS buffer, and suspended in the staining solution for 15 min at room temperature in the dark. Cells were then washed and immediately analyzed by FACSCantoII flow cytometer (BD Biosciences, New Jersey, USA). Cells were gated and plotted on dot plots showing the distribution of annexin V-positive cells (early apoptotic cells) and annexin V/propidium iodide-positive cells (late apoptotic cells).

[5] = system: complex I-driven mitochondrial respiration; assay: Respiratory control ratio, complex I-driven respiration in permeabilized cells; type: cell-based, human; details: permeabilized A2780, 24 h treatment; control about 3.1
Procedure: as §1

caspase-8 = assay: FAM-FLICA caspase-8 activation, flow cytometry; type: cell-based, human; details: A2780, 72 h at 72 h IC50 dose, compared to controls
Procedure: In addition, caspase-3, caspase-8, and caspase-9 activation was assessed in treated and untreated cells. Likewise, cells were trypsinized, washed with PBS, and suspended in FAM-FLICATM caspase solution (FAM-DEVD-FMK caspase FLICA kit, ImmunoChemistry Technologies, MN 55431 USA) for 30 min at 37 °C. Cells were then washed twice with PBS and analyzed using a FACSCantoII flow cytometer (BD Biosciences, New Jersey, USA).

[6] = system: lactate production of A2780 cells; assay: Lactate production assay (K-LATE kit) in culture medium; type: cell-based, human; details: A2780, 24 h treatment at 72 h IC50 dose, vs controls
Procedure: The lactate amount was measured in cell culture media after 24 h of treatment with K-LATE kit (Megazyme, Bray, Ireland) according to the data sheet provided by the manufacturer. Lactate content was normalized on the protein content of the same sample.

## Cc1cccc2[n+]1[Au-]1([O][Au-]3([O]1)[n+]1c(C)cccc1-c1cccc(C)[n+]13)[n+]1c(C)cccc1-2.F[P-](F)(F)(F)(F)F.F[P-](F)(F)(F)(F)F [Auoxo6, ((6,6′-dimethyl-2,2′-bipyridine)2Au2(µ-O)2)(PF6)2]
[1]
  reduction of oxygen consumption rate (OCR): 24.7%
[2]
  IC50: 6.16 ± 0.04 µM
  IC50 for HEK higher than for A2780 (fold): 5 fold
[3]
  effect on TrxR enzyme activity: clear tendency to inhibit the TrxR activity, even if the changes were not statistically significant
  inhibition of TrxR enzyme activity: about 50%
[4]
  respiratory control ratio (RCR), complex II-driven: about 1.8
A2780 cells
  increase of annexin V fluorescence intensity vs untreated control cells: 10 fold
[5]
  respiratory control ratio (RCR), complex I-driven: 2.1
caspase-8
  cells showing caspase-8 activation: ~70%
[6]
  increase of lactate level in medium: ~25%

## Cc1ccc2ccc3ccc(C)[n+]4c3c2[n+]1[Au-]41[O][Au-]2([O]1)[n+]1c(C)ccc3ccc4ccc(C)[n+]2c4c31.F[P-](F)(F)(F)(F)F.F[P-](F)(F)(F)(F)F [Au2phen, ((2,9-dimethyl-1,10-phenanthroline)2Au2(µ-O)2)(PF6)2]
[1]
  reduction of oxygen consumption rate (OCR): 26.8%
[2]
  IC50: 4.18 ± 0.05 µM
  IC50 for HEK higher than for A2780 (fold): 5 fold
[3]
  effect on TrxR enzyme activity: clear tendency to inhibit the TrxR activity, even if the changes were not statistically significant
  inhibition of TrxR enzyme activity: ~ 26%
[4]
  respiratory control ratio (RCR), complex II-driven: about 1.7
A2780 cells
  increase of annexin V fluorescence intensity vs untreated control cells: 6 fold
[5]
  respiratory control ratio (RCR), complex I-driven: about 1.8
caspase-8
  cells showing caspase-8 activation: around 50%
[6]
  increase of lactate level in medium: about 20%

## CCOC(=O)CN(C)C1=[S+][Au-]([Br])([Br])[S]1 [AuL12, dibromo(ethylsarcosinedithiocarbamate)gold(III), reference compound]
[1]
  reduction of oxygen consumption rate (OCR): 18%
[2]
  IC50: 10.7 ± 0.36 µM
  IC50 for HEK higher than for A2780 (fold): 2.7 fold
[3]
  effect on TrxR enzyme activity: clear tendency to inhibit the TrxR activity, even if the changes were not statistically significant
  inhibition of TrxR enzyme activity: about 50%
[4]
  respiratory control ratio (RCR), complex II-driven: about 2.4
A2780 cells
  increase of annexin V fluorescence intensity vs untreated control cells: 5 fold
[5]
  respiratory control ratio (RCR), complex I-driven: 2.3
caspase-8
  cells showing caspase-8 activation: ~ 30%
[6]
  increase of lactate level in medium: ~29%

— PMC8389655, “Au2phen and Auoxo6, Two Dinuclear Oxo-Bridged Gold(III) Compounds, Induce Apoptotic Signaling in Human Ovarian A2780 Cancer Cells” (Biomedicines, 2021)
